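At the GI50, growth is halved. TGI: total growth inhibition.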
Experiments:
Assay in all cases: NCI-60 cell line screen, 384-well format
786-0 renal = system: 786-0 renal
A498 renal = system: A498 renal
A549 NSCLC = system: A549 NSCLC
ACHN renal = system: ACHN renal
BT-549 breast = system: BT-549 breast
CAKI-1 renal = system: CAKI-1 renal
CCRF-CEM leukemia = system: CCRF-CEM leukemia
COLO 205 colon = system: COLO 205 colon
DU-145 prostate = system: DU-145 prostate
EKVX NSCLC = system: EKVX NSCLC
HCT-116 colon = system: HCT-116 colon
HCT-15 colon = system: HCT-15 colon
HL-60(TB) leukemia = system: HL-60(TB) leukemia
HOP-62 NSCLC = system: HOP-62 NSCLC
HOP-92 NSCLC = system: HOP-92 NSCLC
HS 578T breast = system: HS 578T breast
HT29 colon = system: HT29 colon
IGROV1 ovarian = system: IGROV1 ovarian
K-562 leukemia = system: K-562 leukemia
KM12 colon = system: KM12 colon
LOX IMVI melanoma = system: LOX IMVI melanoma
M14 melanoma = system: M14 melanoma
MALME-3M melanoma = system: MALME-3M melanoma
MCF7 breast = system: MCF7 breast
MDA-MB-231 breast = system: MDA-MB-231 breast
MDA-MB-435 melanoma = system: MDA-MB-435 melanoma
MDA-MB-468 breast = system: MDA-MB-468 breast
MOLT-4 leukemia = system: MOLT-4 leukemia
NCI-H226 lung = system: NCI-H226 lung
NCI-H23 lung = system: NCI-H23 lung
NCI-H322M lung = system: NCI-H322M lung
NCI-H460 NSCLC = system: NCI-H460 NSCLC
NCI-H522 lung = system: NCI-H522 lung
NCI/ADR-RES ovarian = system: NCI/ADR-RES ovarian
OVCAR-3 ovarian = system: OVCAR-3 ovarian
OVCAR-4 ovarian = system: OVCAR-4 ovarian
OVCAR-5 ovarian = system: OVCAR-5 ovarian
PC-3 prostate = system: PC-3 prostate
RPMI-8226 leukemia = system: RPMI-8226 leukemia
RXF 393 renal = system: RXF 393 renal
SF-268 CNS = system: SF-268 CNS
SF-295 CNS = system: SF-295 CNS
SF-539 CNS = system: SF-539 CNS
SK-MEL-2 melanoma = system: SK-MEL-2 melanoma
SK-MEL-28 melanoma = system: SK-MEL-28 melanoma
SK-MEL-5 melanoma = system: SK-MEL-5 melanoma
SK-OV-3 ovarian = system: SK-OV-3 ovarian
SN12C renal = system: SN12C renal
SNB-19 CNS = system: SNB-19 CNS
SNB-75 CNS = system: SNB-75 CNS
SR leukemia = system: SR leukemia
SW-620 colon = system: SW-620 colon
T-47D breast = system: T-47D breast
TK-10 renal = system: TK-10 renal
U251 glioblastoma = system: U251 glioblastoma
UACC-257 melanoma = system: UACC-257 melanoma
UACC-62 melanoma = system: UACC-62 melanoma
UO-31 renal = system: UO-31 renal

**Q.** How did the GI50 ([…]-0 renal) turn out when `NC(=O)c1ccc2nc(-c3ccc(Oc4ccc(Cl)cc4)cc3)[nH]c2c1` was run?
**A.** 15 µM

**Q.** What about the TGI (786-0 renal) of the same compound?
**A.** 37.1 µM

**Q.** And the GI50 (A498 renal)?
**A.** 16.1 µM

**Q.** And the TGI (A498 renal)?
**A.** 31.6 µM

**Q.** What about the GI50 (A549 NSCLC) of the same compound?
**A.** 20.2 µM

**Q.** What about the TGI (A549 NSCLC) of the same compound?
**A.** > 100 µM

**Q.** And the GI50 (ACHN renal)?
**A.** 17.4 µM

**Q.** What about the TGI (ACHN renal) of the same compound?
**A.** 45.1 µM

**Q.** And the GI50 (BT-549 breast)?
**A.** 13.6 µM

**Q.** What about the TGI (BT-549 breast) of the same compound?
**A.** 30.7 µM

**Q.** What about the GI50 (CAKI-1 renal) of the same compound?
**A.** 25.1 µM

**Q.** And the TGI (CAKI-1 renal)?
**A.** > 100 µM

**Q.** And the GI50 (CCRF-CEM leukemia)?
**A.** 15.3 µM

**Q.** What about the TGI (CCRF-CEM leukemia) of the same compound?
**A.** 29.7 µM

**Q.** What about the GI50 (COLO 205 colon) of the same compound?
**A.** 33.8 µM

**Q.** And the TGI (COLO 205 colon)?
**A.** 97.8 µM

**Q.** What about the GI50 (DU-145 prostate) of the same compound?
**A.** 15 µM

**Q.** And the TGI (DU-145 prostate)?
**A.** 36.9 µM

**Q.** And the GI50 (EKVX NSCLC)?
**A.** 21.7 µM

**Q.** What about the TGI (EKVX NSCLC) of the same compound?
**A.** 68.4 µM

**Q.** What about the GI50 (HCT-116 colon) of the same compound?
**A.** 16.8 µM

**Q.** And the TGI (HCT-116 colon)?
**A.** 40.8 µM

**Q.** What about the GI50 (HCT-15 colon) of the same compound?
**A.** 16.9 µM

**Q.** What about the TGI (HCT-15 colon) of the same compound?
**A.** 34.4 µM

**Q.** What about the GI50 (HL-60(TB) leukemia) of the same compound?
**A.** 15 µM

**Q.** And the TGI (HL-60(TB) leukemia)?
**A.** 28.4 µM

**Q.** And the GI50 (HOP-62 NSCLC)?
**A.** 13.6 µM

**Q.** And the TGI (HOP-62 NSCLC)?
**A.** 33.9 µM

**Q.** What about the GI50 (HOP-92 NSCLC) of the same compound?
**A.** 20 µM

**Q.** What about the TGI (HOP-92 NSCLC) of the same compound?
**A.** 80.3 µM

**Q.** What about the GI50 (HS 578T breast) of the same compound?
**A.** 13.4 µM

**Q.** And the TGI (HS 578T breast)?
**A.** 30.7 µM

**Q.** And the GI50 (HT29 colon)?
**A.** 10.5 µM

**Q.** What about the TGI (HT29 colon) of the same compound?
**A.** 24.1 µM

**Q.** And the GI50 (IGROV1 ovarian)?
**A.** 17.1 µM

**Q.** What about the TGI (IGROV1 ovarian) of the same compound?
**A.** 53.2 µM

**Q.** And the GI50 (K-562 leukemia)?
**A.** 7.87 µM

**Q.** And the TGI (K-562 leukemia)?
**A.** 23.4 µM

**Q.** What about the GI50 (KM12 colon) of the same compound?
**A.** 14.5 µM

**Q.** What about the TGI (KM12 colon) of the same compound?
**A.** 31.3 µM

**Q.** And the GI50 (LOX IMVI melanoma)?
**A.** 26.2 µM

**Q.** What about the TGI (LOX IMVI melanoma) of the same compound?
**A.** 60.7 µM

**Q.** What about the GI50 (M14 melanoma) of the same compound?
**A.** 20.2 µM

**Q.** And the TGI (M14 melanoma)?
**A.** 50.3 µM

**Q.** And the GI50 (MALME-3M melanoma)?
**A.** 17.1 µM

**Q.** What about the TGI (MALME-3M melanoma) of the same compound?
**A.** 46.2 µM

**Q.** What about the GI50 (MCF7 breast) of the same compound?
**A.** 12.1 µM

**Q.** And the TGI (MCF7 breast)?
**A.** 27.1 µM

**Q.** And the GI50 (MDA-MB-231 breast)?
**A.** 21.5 µM

**Q.** And the TGI (MDA-MB-231 breast)?
**A.** 46.1 µM

**Q.** And the GI50 (MDA-MB-435 melanoma)?
**A.** 23.2 µM

**Q.** What about the TGI (MDA-MB-435 melanoma) of the same compound?
**A.** 68 µM

**Q.** And the GI50 (MDA-MB-468 breast)?
**A.** 13.7 µM

**Q.** What about the TGI (MDA-MB-468 breast) of the same compound?
**A.** 34.5 µM

**Q.** And the GI50 (MOLT-4 leukemia)?
**A.** 12.9 µM

**Q.** What about the TGI (MOLT-4 leukemia) of the same compound?
**A.** 25.8 µM

**Q.** And the GI50 (NCI-H226 lung)?
**A.** 22 µM

**Q.** And the TGI (NCI-H226 lung)?
**A.** 78.1 µM

**Q.** What about the GI50 (NCI-H23 lung) of the same compound?
**A.** 20.1 µM

**Q.** What about the TGI (NCI-H23 lung) of the same compound?
**A.** 76 µM

**Q.** What about the GI50 (NCI-H322M lung) of the same compound?
**A.** 15.3 µM

**Q.** And the TGI (NCI-H322M lung)?
**A.** 38.6 µM

**Q.** What about the GI50 (NCI-H460 NSCLC) of the same compound?
**A.** 14.8 µM

**Q.** What about the TGI (NCI-H460 NSCLC) of the same compound?
**A.** 29.1 µM

**Q.** And the GI50 (NCI-H522 lung)?
**A.** 14.9 µM

**Q.** And the TGI (NCI-H522 lung)?
**A.** 46.2 µM

**Q.** What about the GI50 (NCI/ADR-RES ovarian) of the same compound?
**A.** 23.5 µM

**Q.** What about the TGI (NCI/ADR-RES ovarian) of the same compound?
**A.** 74.7 µM

**Q.** What about the GI50 (OVCAR-3 ovarian) of the same compound?
**A.** 12.1 µM

**Q.** And the TGI (OVCAR-3 ovarian)?
**A.** 25.4 µM

**Q.** What about the GI50 (OVCAR-4 ovarian) of the same compound?
**A.** 11.4 µM

**Q.** And the TGI (OVCAR-4 ovarian)?
**A.** 37.1 µM

**Q.** And the GI50 (OVCAR-5 ovarian)?
**A.** 23.6 µM

**Q.** What about the TGI (OVCAR-5 ovarian) of the same compound?
**A.** > 100 µM

**Q.** What about the GI50 (PC-3 prostate) of the same compound?
**A.** 16 µM

**Q.** And the TGI (PC-3 prostate)?
**A.** 34.6 µM

**Q.** And the GI50 (RPMI-8226 leukemia)?
**A.** 15.2 µM

**Q.** And the TGI (RPMI-8226 leukemia)?
**A.** 29.1 µM

**Q.** And the GI50 (RXF 393 renal)?
**A.** 10.6 µM

**Q.** What about the TGI (RXF 393 renal) of the same compound?
**A.** 27.7 µM

**Q.** What about the GI50 (SF-268 CNS) of the same compound?
**A.** 15.9 µM

**Q.** And the TGI (SF-268 CNS)?
**A.** 56.2 µM

**Q.** And the GI50 (SF-295 CNS)?
**A.** 13.5 µM

**Q.** And the TGI (SF-295 CNS)?
**A.** 30.8 µM

**Q.** And the GI50 (SF-539 CNS)?
**A.** 17.5 µM

**Q.** And the TGI (SF-539 CNS)?
**A.** 45.1 µM

**Q.** What about the GI50 (SK-MEL-2 melanoma) of the same compound?
**A.** 33.7 µM

**Q.** And the TGI (SK-MEL-2 melanoma)?
**A.** 53.6 µM

**Q.** And the GI50 (SK-MEL-28 melanoma)?
**A.** 22.2 µM

**Q.** What about the TGI (SK-MEL-28 melanoma) of the same compound?
**A.** 80 µM

**Q.** What about the GI50 (SK-MEL-5 melanoma) of the same compound?
**A.** 13.6 µM

**Q.** What about the TGI (SK-MEL-5 melanoma) of the same compound?
**A.** 28.1 µM

**Q.** What about the GI50 (SK-OV-3 ovarian) of the same compound?
**A.** 24.8 µM

**Q.** And the TGI (SK-OV-3 ovarian)?
**A.** 58.7 µM

**Q.** And the GI50 (SN12C renal)?
**A.** 17.4 µM

**Q.** What about the TGI (SN12C renal) of the same compound?
**A.** 45.8 µM

**Q.** And the GI50 (SNB-19 CNS)?
**A.** 14.9 µM

**Q.** What about the TGI (SNB-19 CNS) of the same compound?
**A.** 35.4 µM

**Q.** What about the GI50 (SNB-75 CNS) of the same compound?
**A.** 22.3 µM

**Q.** What about the TGI (SNB-75 CNS) of the same compound?
**A.** 58.1 µM

**Q.** And the GI50 (SR leukemia)?
**A.** 3.77 µM

**Q.** What about the TGI (SR leukemia) of the same compound?
**A.** 14.1 µM

**Q.** And the GI50 (SW-620 colon)?
**A.** 15.4 µM

**Q.** And the TGI (SW-620 colon)?
**A.** 63.2 µM

**Q.** And the GI50 (T-47D breast)?
**A.** 11.6 µM

**Q.** What about the TGI (T-47D breast) of the same compound?
**A.** 29.5 µM

**Q.** And the GI50 (TK-10 renal)?
**A.** 23.3 µM

**Q.** What about the TGI (TK-10 renal) of the same compound?
**A.** > 100 µM

**Q.** What about the GI50 (U251 glioblastoma) of the same compound?
**A.** 12.3 µM

**Q.** What about the TGI (U251 glioblastoma) of the same compound?
**A.** 26.7 µM

**Q.** And the GI50 (UACC-257 melanoma)?
**A.** 16.2 µM

**Q.** What about the TGI (UACC-257 melanoma) of the same compound?
**A.** 35.1 µM

**Q.** What about the GI50 (UACC-62 melanoma) of the same compound?
**A.** 25.2 µM

**Q.** And the TGI (UACC-62 melanoma)?
**A.** 75.1 µM

**Q.** What about the GI50 (UO-31 renal) of the same compound?
**A.** 16.9 µM

**Q.** What about the TGI (UO-31 renal) of the same compound?
**A.** 44.5 µM

Source: PubChem BioAssay (NCI)
